The results in this text go back to patent publication US8299077B2 (Roche Palo Alto LLC, priority 2009, dated 2012).

The structures appear in SMILES notation.

The test system of this assay is B cell receptor-mediated activation of B cells in human blood (CD69 expression). Put plainly: Inhibition of B cell activation in whole blood measured by CD69 expression. The settings on record: anti-IgM stimulation, 20 h, 50% decrease of CD69-positive cells that are also CD20-positive. The assay is classed as cell-based. On the procedure: Inhibition of B Cell Activation in Whole Blood Measured by CD69 Expression
A procedure to test the ability of Btk inhibitors to suppress B cell receptor-mediated activation of B cells in human blood is as follows:
Human whole blood (HWB) is obtained from healthy volunteers, with the following restrictions: 24 hr drug-free, non-smokers. Blood is collected by venipuncture into Vacutainer tubes anticoagulated with sodium heparin. Test compounds are diluted to ten times the desired starting drug concentration in PBS (20×), followed by three-fold serial dilutions in 10% DMSO in PBS to produce a nine point dose-response curve. 5.5 μl of each compound dilution is added in duplicate to a 2 ml 96-well V bottom plate (Analytical Sales and Services, #59623-23); 5.5 μl of 10% DMSO in PBS is added to control and no-stimulus wells. HWB (100 μl) is added to each well, and after mixing the plates are incubated at 37 C, 5% CO2, 100% humidity for 30 minutes. Goat F(ab′)2 anti-human IgM (Southern Biotech, #2022-14) (10 μl of a 500 μg/ml solution, 50 μg/ml final concentration) is added to each well (except the no-stimulus wells) with mixing and the plates are incubated for an additional 20 hours.
At the end of the 20 hour incubation, samples are incubated with florescent-probe-labeled anti-bodies (15 μl PE Mouse anti-Human CD20, BD Pharmingen, #555623, and/or 20 ul APC Mouse anti-Human CD69, BD Pharmingen #555533) for 30 minutes, at 37 C, 5% CO2, 100% humidity. Included are induced control, unstained and single stains for compensation adjustments and initial voltage settings. Samples are then lysed with 1 ml of 1× Pharmingen Lyse Buffer (BD Pharmingen #555899), and plates are centrifuged at 1800 rpm for 5 minutes. Supernatants are removed via suction and the remaining pellets are lysed again with another 1 ml of 1× Pharmingen Lyse Buffer, and plates are spun down as before. Supernatants are aspirated and remaining pellets are washed in FACs buffer (PBS+1% FBS). After a final spin, the supernantants are removed and pellets are resuspended in 180 μl of FACs buffer. Samples are transferred to a 96 well plate suitable to be run on the HTS 96 well system on the BD LSR II flow cytometer.
Using appropriate excitation and emission wavelengths for the fluorophores used, data are acquired and percent positive cell values are obtained using Cell Quest Software. Results are initially analyzed by FACS analysis software (Flow Jo). […] The IC50 values are calculated using XLfit software version 3, equation 201.
As usually defined, the IC50 is the concentration at which inhibition is half-maximal. Read a low IC50 as higher potency. Take `CN1CCN(c2ccc(Nc3cc(-c4cccc(-n5ccc6cc(N(C)C)cc(F)c6c5=O)c4CO)cn(C)c3=O)nc2)CC1` [Example I-4, 6-Dimethylamino-8-fluoro-2-(2-hydroxymethyl-3-{1-methyl-5-[5-(4-methyl-piperazin-1-yl)-pyridin-2-ylamino]-6-oxo-1,6-dihydro-pyridin-3-yl}-phenyl)-2H-isoquinolin-1-one]: the midpoint of inhibition, the IC50, lay at 11 nM.
Under `CCNC(=O)Nc1cc(-c2cccc(N3CCc4cc(C(C)(C)C#N)cc(F)c4C3=O)c2CO)cn(C)c1=O` [Example I-5, 1-(5-{3-[6-(Cyano-dimethyl-methyl)-8-fluoro-1-oxo-3,4-dihydro-1H-isoquinolin-2-yl]-2-hydroxymethyl-phenyl}-1-methyl-2-oxo-1,2-dihydro-pyridin-3-yl)-3-ethyl-urea] stands 1080 nM.
`Cn1cc(-c2cccc(-n3ncc4cc(C(C)(C)C)cc(F)c4c3=O)c2CO)cc(Nc2ccc(C(=O)N3CCOCC3)cn2)c1=O` [Example I-9, 6-tert-Butyl-8-fluoro-2-(2-hydroxymethyl-3-{1-methyl-5-[5-(morpholine-4-carbonyl)-pyridin-2-ylamino]-6-oxo-1,6-dihydro-pyridin-3-yl}-phenyl)-2H-phthalazin-1-one] had an IC50 of 1 nM.
As to `CN1CCN(Cc2ccc(Nc3cc(-c4cccc(N5CCc6cc(C7CC7)cc(F)c6C5=O)c4CO)cn(C)c3=O)nc2)CC1` [Example I-11, 6-Cyclopropyl-8-fluoro-2-(2-hydroxymethyl-3-{1-methyl-5-[5-(4-methyl-piperazin-1-ylmethyl)-pyridin-2-ylamino]-6-oxo-1,6-dihydro-pyridin-3-yl}-phenyl)-3,4-dihydro-2H-isoquinolin-1-one], the IC50 was 58 nM.
For `CCN1CCN(c2ccc(Nc3cc(-c4cccc(N5CCc6cc(C7CC7)cc(F)c6C5=O)c4CO)cn(C)c3=O)nc2)CC1` [Example I-12, 6-Cyclopropyl-2-(3-{5-[5-(4-ethyl-piperazin-1-yl)-pyridin-2-ylamino]-1-methyl-6-oxo-1,6-dihydro-pyridin-3-yl}-2-hydroxymethyl-phenyl)-8-fluoro-3,4-dihydro-2H-isoquinolin-1-one], the IC50 amounted to 43 nM. The IC50 values of the last two compounds are within 1.5-fold of each other.
In the case of `Cn1cc(-c2cccc(N3CCc4cc(C5CC5)cc(C#N)c4C3=O)c2CO)cc(Nc2ccc(S(C)(=O)=O)cn2)c1=O` [Example I-13, 6-Cyclopropyl-2-{2-hydroxymethyl-3-[5-(5-methanesulfonyl-pyridin-2-ylamino)-1-methyl-6-oxo-1,6-dihydro-pyridin-3-yl]-phenyl}-1-oxo-1,2,3,4-tetrahydro-isoquinoline-8-carbonitrile], inhibition was half-maximal at 4040 nM (IC50).
Next, `Cn1cc(-c2cccc(-n3ncc4cc(C(C)(C)C)cc(F)c4c3=O)c2CO)cc(Nc2ccc(N3CCNCC3)cn2)c1=O` [Example I-14, 6-tert-Butyl-8-fluoro-2-{2-hydroxymethyl-3-[1-methyl-6-oxo-5-(5-piperazin-1-yl-pyridin-2-ylamino)-1,6-dihydro-pyridin-3-yl]-phenyl}-2H-phthalazin-1-one]: 30 nM; `Cn1cc(-c2cccc(-n3ncc4cc(C(C)(C)C)cc(F)c4c3=O)c2CO)cc(Nc2ccc(C3CCNCC3)cn2)c1=O` [Example I-16, 6-tert-Butyl-8-fluoro-2-{3-[5-(1′,2′,3′,4′,5′,6′-hexahydro-[3,4′]bipyridinyl-6-ylamino)-1-methyl-6-oxo-1,6-dihydro-pyridin-3-yl]-2-hydroxymethyl-phenyl}-2H-phthalazin-1-one]: 48 nM; `Cn1cc(-c2cccc(-n3ncc4cc(C(C)(C)C)cc(F)c4c3=O)c2CO)cc(Nc2ccc(N3CCC(C)(O)CC3)cn2)c1=O` [Example I-17, 6-tert-Butyl-8-fluoro-2-{2-hydroxymethyl-3-[5-(4-hydroxy-4-methyl-3,4,5,6-tetrahydro-2H-[1,3′]bipyridinyl-6′-ylamino)-1-methyl-6-oxo-1,6-dihydro-pyridin-3-yl]-phenyl}-2H-phthalazin-1-one]: 10 nM.
Next, `Cn1cc(-c2cccc(-n3ncc4cc(C(C)(C)C)cc(F)c4c3=O)c2CO)cc(Nc2ccc(S(C)(=O)=O)cn2)c1=O` [Example I-18, 6-tert-Butyl-8-fluoro-2-{2-hydroxymethyl-3-[5-(5-methanesulfonyl-pyridin-2-ylamino)-1-methyl-6-oxo-1,6-dihydro-pyridin-3-yl]-phenyl}-2H-phthalazin-1-one]: 11 nM; `Cn1cc(-c2cccc(-n3ncc4cc(C(C)(C)C)cc(F)c4c3=O)c2CO)cc(Nc2ccc(OCCO)cn2)c1=O` [Example I-19]: 14 nM.
Take `Cn1cc(-c2cccc(-n3ncc4cc(C(C)(C)C)cc(F)c4c3=O)c2CO)cc(Nc2ccc(C(C)(C)C(=O)O)cn2)c1=O` [Example I-20, 2-(6-{5-[3-(6-tert-Butyl-8-fluoro-1-oxo-1H-phthalazin-2-yl)-2-hydroxymethyl-phenyl]-1-methyl-2-oxo-1,2-dihydro-pyridin-3-ylamino}-pyridin-3-yl)-2-methyl-propionic acid]: the IC50 came out at 41 nM.
Next, `Cn1cc(-c2cccc(-n3ncc4cc(C(C)(C)C)cc(F)c4c3=O)c2CO)cc(Nc2ccc(C(C)(C)C(=O)N3CCOCC3)cn2)c1=O` [Example I-21, 6-tert-Butyl-2-(3-{5-[5-(1,1-dimethyl-2-morpholin-4-yl-2-oxo-ethyl)-pyridin-2-ylamino]-1-methyl-6-oxo-1,6-dihydro-pyridin-3-yl}-2-hydroxymethyl-phenyl)-8-fluoro-2H-phthalazin-1-one]: 11 nM; `CN(C)C(=O)C(C)(C)c1ccc(Nc2cc(-c3cccc(-n4ncc5cc(C(C)(C)C)cc(F)c5c4=O)c3CO)cn(C)c2=O)nc1` [Example I-22, 2-(6-{5-[3-(6-tert-Butyl-8-fluoro-1-oxo-1H-phthalazin-2-yl)-2-hydroxymethyl-phenyl]-1-methyl-2-oxo-1,2-dihydro-pyridin-3-ylamino}-pyridin-3-yl)-N,N-dimethyl-isobutyramide]: 14 nM; `Cn1ccc(Nc2cc(-c3cccc(-n4ncc5cc(C(C)(C)C)cc(F)c5c4=O)c3CO)cn(C)c2=O)nc1=O` [Example I-23, 6-tert-Butyl-8-fluoro-2-{2-hydroxymethyl-3-[1-methyl-5-(1-methyl-2-oxo-1,2-dihydro-pyrimidin-4-ylamino)-6-oxo-1,6-dihydro-pyridin-3-yl]-phenyl}-2H-phthalazin-1-one]: 392 nM.
Next, `Cn1cc(-c2cccc(-n3ncc4cc(C(C)(C)C)cc(F)c4c3=O)c2CO)cc(Nc2ccc(CO)cn2)c1=O` [Example I-26, 6-tert-Butyl-8-fluoro-2-{2-hydroxymethyl-3-[5-(5-hydroxymethyl-pyridin-2-ylamino)-1-methyl-6-oxo-1,6-dihydro-pyridin-3-yl]-phenyl}-2H-phthalazin-1-one]: 91 nM; `Cc1c(-c2cc(Nc3ccc(N4CCN(C)CC4)cn3)c(=O)n(C)c2)cccc1-n1ncc2cc(C(C)(C)C)cc(F)c2c1=O` [Example I-28, 6-tert-Butyl-8-fluoro-2-(2-methyl-3-{1-methyl-5-[5-(4-methyl-piperazin-1-yl)-pyridin-2-ylamino]-6-oxo-1,6-dihydro-pyridin-3-yl}-phenyl)-2H-phthalazin-1-one]: 181 nM; `CCOCCNC(=O)C(C)(C)c1ccc(Nc2cc(-c3cccc(-n4ncc5cc(C(C)(C)C)cc(F)c5c4=O)c3CO)cn(C)c2=O)nc1` [Example I-29, 2-(6-{5-[3-(6-tert-Butyl-8-fluoro-1-oxo-1H-phthalazin-2-yl)-2-hydroxymethyl-phenyl]-1-methyl-2-oxo-1,2-dihydro-pyridin-3-ylamino}-pyridin-3-yl)-N-(2-ethoxy-ethyl)-isobutyramide]: 30 nM.
Under `CN1CC(Oc2ccc(Nc3cc(-c4cccc(-n5ncc6cc(C(C)(C)C)cc(F)c6c5=O)c4CO)cn(C)c3=O)nc2)C1` [Example I-30, 6-tert-Butyl-8-fluoro-2-(2-hydroxymethyl-3-{1-methyl-5-[5-(1-methyl-azetidin-3-yloxy)-pyridin-2-ylamino]-6-oxo-1,6-dihydro-pyridin-3-yl}-phenyl)-2H-phthalazin-1-one] stands 10 nM; under `CNC(=O)C(C)(C)c1ccc(Nc2cc(-c3cccc(-n4ncc5cc(C(C)(C)C)cc(F)c5c4=O)c3CO)cn(C)c2=O)nc1` [Example I-32, 2-(6-{5-[3-(6-tert-Butyl-8-fluoro-1-oxo-1H-phthalazin-2-yl)-2-hydroxymethyl-phenyl]-1-methyl-2-oxo-1,2-dihydro-pyridin-3-ylamino}-pyridin-3-yl)-N-methyl-isobutyramide], 34 nM.
